Source: US8969360B2, “Compounds useful as inhibitors of ATR kinase” (Vertex Pharmaceuticals Incorporated, priority 2013, dated 2015)

Tests used:
ATR kinase = molecular target: T1, ATR kinase (Homo sapiens, UniProt Q13535); assay: ATR Inhibition Assay (radioactive-phosphate incorporation); format: biochemical; settings: Ki(app); 5 nM full-length ATR, 10 μM ATP, 800 μM target peptide, 25° C.
T1 construct: Assays were carried out at 25° C. in the presence of 5 nM full-length ATR
Experimental: Compounds were screened for their ability to inhibit ATR kinase using a radioactive-phosphate incorporation assay. Assays were carried out in a mixture of 50 mM Tris/HCl (pH 7.5), 10 mM MgCl2 and 1 mM DTT. Final substrate concentrations were 10 μM [γ-33P]ATP (3 mCi 33P ATP/mmol ATP, Perkin Elmer) and 800 μM target peptide (ASELPASQPQPFSAKKK (SEQ. ID NO: 1)).
Assays were carried out at 25° C. in the presence of 5 nM full-length ATR. An assay stock buffer solution was prepared containing all of the reagents listed above, with the exception of ATP and the test compound of interest. 13.5 μL of the stock solution was placed in a 96 well plate followed by addition of 2 μL of DMSO stock containing serial dilutions of the test compound (typically starting from a final concentration of 15 μM with 3-fold serial dilutions) in duplicate (final DMSO concentration 7%). The plate was pre-incubated for 10 minutes at 25° C. and the reaction initiated by addition of 15 μL [γ-33P]ATP (final concentration 10 μM).
The reaction was stopped after […] by the addition of 30 μL, 0.1M phosphoric acid containing 2 mM ATP. A multiscreen phosphocellulose filter 96-well plate (Millipore, Cat no. MAPHN0B50) was pretreated with 100 μL 0.2M phosphoric acid prior to the addition of 45 μL of the stopped assay mixture. The plate was washed with 5×200 μL 0.2M phosphoric acid. After drying, 100 μL Optiphase ‘SuperMix’ liquid scintillation cocktail (Perkin Elmer) was added to the well prior to scintillation counting (1450 Microbeta Liquid Scintillation Counter, Wallac).
After removing mean background values for all of the data points, Ki(app) data were calculated from non-linear regression analysis of the initial rate data using the Prism software package (GraphPad Prism version 3.0cx for Macintosh, GraphPad Software, San Diego Calif., USA).
Compounds with a Ki value of <0.01 μM are marked with “+++.” Compounds with a Ki value >0.01 μM but <1 μM are marked with “++.” Compounds with a Ki value >1 μM but <5 μM are marked with “+.”

[1] = tested on: HCT116 colorectal cancer cells; assay: Cisplatin Sensitization Assay (96 h cell viability MTS); format: cell-based; settings: concentration of compound required to reduce the IC50 of Cisplatin alone by at least 3-fold; HCT116, 96 h MTS
Experimental: Compounds can be screened for their ability to sensitize HCT116 colorectal cancer cells to Cisplatin using a 96 h cell viability (MTS) assay. […] Compounds and Cisplatin are then both added simultaneously to the cell media in 2-fold serial dilutions from a top final concentration of 10 μM as a full matrix of concentrations in a final cell volume of 200 μl, and the cells are then incubated at 37° C. in 5% CO2. After 96 h, 40 μl of MTS reagent (Promega G358a) is added to each well and the cells are incubated for 1 h at 37° C. in 5% CO2. Finally, absorbance is measured at 490 nm using a SpectraMax Plus 384 reader (Molecular Devices) and the concentration of compound required to reduce the IC50 of Cisplatin alone by at least 3-fold (to 1 decimal place) can be reported.
Compounds with a Cisplatin sensitization value of <0.02 μM are marked with “+++.” Compounds with a Cisplatin sensitization value>0.02 μM but <0.2 μM are marked with “++.” Compounds with a Cisplatin sensitization value >0.2 μM but <5 μM are marked with “+.”

T1 sequence (Q13535 whole entry): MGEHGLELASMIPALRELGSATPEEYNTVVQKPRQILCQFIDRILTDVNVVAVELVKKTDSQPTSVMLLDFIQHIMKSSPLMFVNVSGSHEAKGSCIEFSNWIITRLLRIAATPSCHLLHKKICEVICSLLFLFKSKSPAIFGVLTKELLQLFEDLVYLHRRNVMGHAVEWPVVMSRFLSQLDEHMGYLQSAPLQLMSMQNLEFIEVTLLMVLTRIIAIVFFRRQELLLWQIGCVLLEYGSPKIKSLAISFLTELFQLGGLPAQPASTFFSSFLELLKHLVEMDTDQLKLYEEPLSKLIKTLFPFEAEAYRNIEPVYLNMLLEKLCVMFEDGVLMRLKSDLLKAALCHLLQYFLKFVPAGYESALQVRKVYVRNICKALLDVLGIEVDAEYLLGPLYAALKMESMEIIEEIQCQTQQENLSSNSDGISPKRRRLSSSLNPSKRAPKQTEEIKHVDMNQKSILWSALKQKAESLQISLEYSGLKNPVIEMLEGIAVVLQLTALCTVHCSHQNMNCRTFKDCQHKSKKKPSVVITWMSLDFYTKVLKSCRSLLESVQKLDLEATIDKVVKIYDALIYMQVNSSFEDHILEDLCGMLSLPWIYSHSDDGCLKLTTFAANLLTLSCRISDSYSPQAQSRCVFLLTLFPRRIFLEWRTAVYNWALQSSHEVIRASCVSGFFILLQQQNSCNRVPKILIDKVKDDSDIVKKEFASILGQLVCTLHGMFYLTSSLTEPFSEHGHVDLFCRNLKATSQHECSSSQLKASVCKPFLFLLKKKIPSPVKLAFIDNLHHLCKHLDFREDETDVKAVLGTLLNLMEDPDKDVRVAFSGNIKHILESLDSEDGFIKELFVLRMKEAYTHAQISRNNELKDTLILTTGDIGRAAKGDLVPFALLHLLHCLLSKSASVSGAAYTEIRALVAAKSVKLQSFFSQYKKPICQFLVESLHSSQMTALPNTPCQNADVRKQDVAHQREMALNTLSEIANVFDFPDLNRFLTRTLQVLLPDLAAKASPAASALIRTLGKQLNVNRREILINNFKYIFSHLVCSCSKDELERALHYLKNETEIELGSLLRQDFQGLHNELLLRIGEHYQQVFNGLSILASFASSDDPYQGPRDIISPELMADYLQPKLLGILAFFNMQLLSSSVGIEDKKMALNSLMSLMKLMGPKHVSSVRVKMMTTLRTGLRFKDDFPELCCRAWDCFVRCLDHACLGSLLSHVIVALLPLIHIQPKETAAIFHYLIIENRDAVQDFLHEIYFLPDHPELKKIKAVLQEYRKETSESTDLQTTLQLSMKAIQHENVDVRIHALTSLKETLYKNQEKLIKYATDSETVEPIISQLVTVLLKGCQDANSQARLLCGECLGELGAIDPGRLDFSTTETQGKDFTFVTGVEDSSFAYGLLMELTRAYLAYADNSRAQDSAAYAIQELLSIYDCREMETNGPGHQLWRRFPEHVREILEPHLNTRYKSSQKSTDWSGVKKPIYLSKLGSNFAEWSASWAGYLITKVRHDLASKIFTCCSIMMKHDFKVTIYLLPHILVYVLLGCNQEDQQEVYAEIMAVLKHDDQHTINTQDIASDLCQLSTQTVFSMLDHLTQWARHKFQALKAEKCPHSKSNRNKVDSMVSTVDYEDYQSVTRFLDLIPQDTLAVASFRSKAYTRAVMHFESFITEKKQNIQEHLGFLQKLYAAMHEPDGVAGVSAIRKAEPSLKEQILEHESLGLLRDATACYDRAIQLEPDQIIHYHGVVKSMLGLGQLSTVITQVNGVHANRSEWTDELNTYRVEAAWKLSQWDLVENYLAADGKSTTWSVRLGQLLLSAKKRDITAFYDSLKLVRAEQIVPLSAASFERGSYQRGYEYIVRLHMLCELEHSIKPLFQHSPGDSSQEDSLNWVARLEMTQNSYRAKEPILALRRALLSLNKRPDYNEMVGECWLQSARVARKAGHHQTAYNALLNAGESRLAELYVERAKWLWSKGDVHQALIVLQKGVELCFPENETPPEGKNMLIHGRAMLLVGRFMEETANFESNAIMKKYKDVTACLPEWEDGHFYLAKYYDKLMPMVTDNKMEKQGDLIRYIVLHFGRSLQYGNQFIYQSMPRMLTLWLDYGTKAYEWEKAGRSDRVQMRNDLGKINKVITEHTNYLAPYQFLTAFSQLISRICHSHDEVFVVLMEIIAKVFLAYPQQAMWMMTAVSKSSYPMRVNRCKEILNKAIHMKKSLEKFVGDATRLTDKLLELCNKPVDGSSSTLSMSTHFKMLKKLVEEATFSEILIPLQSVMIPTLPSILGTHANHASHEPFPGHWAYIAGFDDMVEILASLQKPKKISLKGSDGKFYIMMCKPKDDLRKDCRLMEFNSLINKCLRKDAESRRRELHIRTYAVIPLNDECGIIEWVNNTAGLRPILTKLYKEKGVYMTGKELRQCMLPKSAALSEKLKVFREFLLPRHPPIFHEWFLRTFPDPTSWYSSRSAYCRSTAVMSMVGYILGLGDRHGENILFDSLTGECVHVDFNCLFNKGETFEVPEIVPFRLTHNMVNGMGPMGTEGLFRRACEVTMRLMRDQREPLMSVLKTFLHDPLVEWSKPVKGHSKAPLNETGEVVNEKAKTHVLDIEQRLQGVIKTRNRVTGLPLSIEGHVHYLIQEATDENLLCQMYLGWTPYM

Ki (ATR kinase) [nM]	SMILES	Synergy with Cisplatin [1]
< 10	Nc1nn2ccc(C(F)(F)F)nc2c1C(=O)Nc1cnccc1OCCCO [I-O-14, 2-amino-N-(4-(3-hydroxypropoxy)pyridin-3-yl)-5-(trifluoromethyl)pyrazolo[1,5-a]pyrimidine-3-carboxamide]	+++ (Compounds with a Cisplatin sensitization value of <0.02 μM are marked with “+++.”)
1000 to 5000	Cc1ccncc1NC(=O)c1c(N)nn2ccc(OCCN(C)C)nc12 [I-C-3, 2-amino-5-(2-(dimethylamino)ethoxy)-N-(4-methylpyridin-3-yl)pyrazolo[1,5-a]pyrimidine-3-carboxamide]	++ (Compounds with a Cisplatin sensitization value>0.02 μM but <0.2 μM are marked with “++.”)
10 to 1000	CN1CCC[C@H]1COc1ccncc1NC(=O)c1c(N)nn2ccc(C(F)(F)F)nc12 [I-O-33, (S)-2-amino-N-(4-((1-methylpyrrolidin-2-yl)methoxy)pyridin-3-yl)-5-(trifluoromethyl)pyrazolo[1,5-a]pyrimidine-3-carboxamide]	++ (Compounds with a Cisplatin sensitization value>0.02 μM but <0.2 μM are marked with “++.”)
10 to 1000	COc1ccncc1NC(=O)c1c(N)nn2ccc(CO)nc12 [I-O-54, 2-amino-5-(hydroxymethyl)-N-(4-methoxypyridin-3-yl)pyrazolo[1,5-a]pyrimidine-3-carboxamide]	++ (Compounds with a Cisplatin sensitization value>0.02 μM but <0.2 μM are marked with “++.”)
10 to 1000	COc1cc(Cl)ncc1NC(=O)c1c(N)nn2ccc(OCCN(C)C)nc12 [I-O-65, 2-amino-N-(6-chloro-4-methoxypyridin-3-yl)-5-(2-(dimethylamino)ethoxy)pyrazolo[1,5-a]pyrimidine-3-carboxamide]	+ (Compounds with a Cisplatin sensitization value >0.2 μM but <5 μM are marked with “+.”)
10 to 1000	COc1ccncc1NC(=O)c1c(N)nn2ccc(NCCN3CCCC3)nc12 [I-O-72, 2-amino-N-(4-methoxypyridin-3-yl)-5-((2-(pyrrolidin-1-yl)ethyl)amino)pyrazolo[1,5-a]pyrimidine-3-carboxamide]	+ (Compounds with a Cisplatin sensitization value >0.2 μM but <5 μM are marked with “+.”)
10 to 1000	COc1ccncc1NC(=O)c1c(N)nn2ccc(OC3CCN(C)CC3)nc12 [I-O-61, 2-amino-N-(4-methoxypyridin-3-yl)-5-((1-methylpiperidin-4-yl)oxy)pyrazolo[1,5-a]pyrimidine-3-carboxamide]	++ (Compounds with a Cisplatin sensitization value>0.02 μM but <0.2 μM are marked with “++.”)
10 to 1000	Nc1nn2ccc(C(F)(F)F)nc2c1C(=O)Nc1cnccc1OC1CC2(CNC2)C1 [I-O-32, N-(4-(2-azaspiro[3.3]heptan-6-yloxy)pyridin-3-yl)-2-amino-5-(trifluoromethyl)pyrazolo[1,5-a]pyrimidine-3-carboxamide]	++ (Compounds with a Cisplatin sensitization value>0.02 μM but <0.2 μM are marked with “++.”)
10 to 1000	COc1ccncc1NC(=O)c1c(N)nn2ccc(N3CCNCC3)nc12 [I-O-76, 2-amino-N-(4-methoxypyridin-3-yl)-5-(piperazin-1-yl)pyrazolo[1,5-a]pyrimidine-3-carboxamide]	++ (Compounds with a Cisplatin sensitization value>0.02 μM but <0.2 μM are marked with “++.”)
10 to 1000	CCCNc1ccn2nc(N)c(C(=O)Nc3cnccc3OC)c2n1 [I-O-67, 2-amino-N-(4-methoxypyridin-3-yl)-5-(propylamino)pyrazolo[1,5-a]pyrimidine-3-carboxamide]	++ (Compounds with a Cisplatin sensitization value>0.02 μM but <0.2 μM are marked with “++.”)
10 to 1000	CN(C)CCOCCOc1ccncc1NC(=O)c1c(N)nn2ccc(C(F)(F)F)nc12 [I-O-36, 2-amino-N-(4-(2-(2-(dimethylamino)ethoxy)ethoxy)pyridin-3-yl)-5-(trifluoromethyl)pyrazolo[1,5-a]pyrimidine-3-carboxamide]	++ (Compounds with a Cisplatin sensitization value>0.02 μM but <0.2 μM are marked with “++.”)
< 10	Nc1nn2ccc(C(F)(F)F)nc2c1C(=O)Nc1cnccc1OCC1CC1 [I-O-6, 2-amino-N-(4-(cyclopropylmethoxy)pyridin-3-yl)-5-(trifluoromethyl)pyrazolo[1,5-a]pyrimidine-3-carboxamide]	+++ (Compounds with a Cisplatin sensitization value of <0.02 μM are marked with “+++.”)
10 to 1000	COc1cc(C)ncc1NC(=O)c1c(N)nn2ccc(C(F)(F)F)nc12 [I-O-46, 2-amino-N-(4-methoxy-6-methylpyridin-3-yl)-5-(trifluoromethyl)pyrazolo[1,5-a]pyrimidine-3-carboxamide]	++ (Compounds with a Cisplatin sensitization value>0.02 μM but <0.2 μM are marked with “++.”)
10 to 1000	COc1ccncc1NC(=O)c1c(N)nn2ccc(NCC3CCCN3C)nc12 (stereo not drawn) [I-O-71]	+ (Compounds with a Cisplatin sensitization value >0.2 μM but <5 μM are marked with “+.”)
10 to 1000	CN1CC[C@@H](Oc2ccncc2NC(=O)c2c(N)nn3ccc(C(F)(F)F)nc23)C1 [I-O-19, (R)-2-amino-N-(4-((1-methylpyrrolidin-3-yl)oxy)pyridin-3-yl)-5-(trifluoromethyl)pyrazolo[1,5-a]pyrimidine-3-carboxamide]	++ (Compounds with a Cisplatin sensitization value>0.02 μM but <0.2 μM are marked with “++.”)
10 to 1000	CN(C)[C@H]1CC[C@@H](Oc2ccncc2NC(=O)c2c(N)nn3ccc(C(F)(F)F)nc23)CC1 [I-O-30, 2-amino-N-(4-(((1s,4s)-4-(dimethylamino)cyclohexyl)oxy)pyridin-3-yl)-5-(trifluoromethyl)pyrazolo[1,5-a]pyrimidine-3-carboxamide]	+++ (Compounds with a Cisplatin sensitization value of <0.02 μM are marked with “+++.”)
10 to 1000	COCCN1CCC[C@@H](Oc2ccncc2NC(=O)c2c(N)nn3ccc(C(F)(F)F)nc23)C1 [I-O-43, (R)-2-amino-N-(4-((1-(2-methoxyethyl)piperidin-3-yl)oxy)pyridin-3-yl)-5-(trifluoromethyl)pyrazolo[1,5-a]pyrimidine-3-carboxamide]	++ (Compounds with a Cisplatin sensitization value>0.02 μM but <0.2 μM are marked with “++.”)
10 to 1000	COc1ccncc1NC(=O)c1c(N)nn2ccc(N3CCN(C)CC3)nc12 [I-O-78, 2-amino-N-(4-methoxypyridin-3-yl)-5-(4-methylpiperazin-1-yl)pyrazolo[1,5-a]pyrimidine-3-carboxamide]	+ (Compounds with a Cisplatin sensitization value >0.2 μM but <5 μM are marked with “+.”)
1000 to 5000	CN1CCC(Oc2c(Cl)cncc2NC(=O)c2c(N)nn3ccc(C(F)(F)F)nc23)CC1 [I-O-49, 2-amino-N-(5-chloro-4-((1-methylpiperidin-4-yl)oxy)pyridin-3-yl)-5-(trifluoromethyl)pyrazolo[1,5-a]pyrimidine-3-carboxamide]	+ (Compounds with a Cisplatin sensitization value >0.2 μM but <5 μM are marked with “+.”)
10 to 1000	Nc1nn2ccc(C(F)(F)F)nc2c1C(=O)Nc1cnccc1O[C@H]1CCOC1 [I-O-10, (S)-2-amino-N-(4-((tetrahydrofuran-3-yl)oxy)pyridin-3-yl)-5-(trifluoromethyl)pyrazolo[1,5-a]pyrimidine-3-carboxamide]	+++ (Compounds with a Cisplatin sensitization value of <0.02 μM are marked with “+++.”)
10 to 1000	CN1CCC(Oc2ccncc2NC(=O)c2c(N)nn3ccc(C(F)(F)F)nc23)CC1 [I-O-31, 2-amino-N-(4-((1-methylpiperidin-4-yl)oxy)pyridin-3-yl)-5-(trifluoromethyl)pyrazolo[1,5-a]pyrimidine-3-carboxamide]	++ (Compounds with a Cisplatin sensitization value>0.02 μM but <0.2 μM are marked with “++.”)
